The values that follow come from patent US20250009763A1, “METHODS FOR EXTENDING LIFESPAN AND/OR DELAYING AGING” (priority 2023, published 2025).

In assay [1] the test system is intracellular NAD^+ of WT yeast cells (BY4741). Kind of assay: Intracellular NAD^+ content. The following applies: 25 μM, 2 hours; FIG. 2B. Type of assay: cell-based, Saccharomyces cerevisiae. Here is the method:
WT yeast cells (BY4741; […] per group) were incubated in the presence of DMSO (control) or PN6 (25 μM), or cultured in YEPD medium adjusted to CR 0.1%, for 2 hours, before being harvested. The harvested cells were extracted with 250 μl of 1 M glacial formic acid saturated with butanol, incubated for 30 minutes on ice. Then, 62.5 μl of 100% trichloroacetic acid (TCA) (w/v) was added to each sample, and the samples were incubated on ice for an additional 15 minutes. The samples were pelleted by centrifugation at 17,000×g and 4° C. for 5 minutes, and the supernatant was transferred to another eppendorf tube. […]
For analysis, each supernatant or standard sample was divided into two sets: the control set and the test set (150 μl per set), each of which was assembled with an alcohol dehydrogenase (ADH) reaction buffer (345 μl, containing 360 mM Tris (pH 9.7), 240 mM lysine, 0.24% (v/v) EtOH). […] After incubation at room temperature for 10 minutes, the absorbance at 340 nm of each sample was measured by a microplate reader. To determine the NAD^+ levels in each supernatant or standard sample, the absorbance values of the test set (the ADH catalytic set) were divided by the corresponding values of the control set (the water set), which represented the basal NADH levels.

The subject of a further assay is p21. Kind of assay: p21 expression in HUVECs, western blot. Type of assay: cell-based, human. The following applies: HUVECs at PDL11, 1 or 2 μM; FIG. 3B. Here is the method: (§1) For the population doubling (PD) assay, HUVECs (1×10^5 cells/3.5 cm dish) were propagated in the presence of DMSO (i.e., control) or PN6 (1 or 2 μM) until senescence (Day 41), and the cell numbers in each passage were recorded to generate a growth curve that represented the cumulative population doubling. The population doubling levels (PDLs) of HUVECs were calculated in every culture to indicate the proliferation capacity of HUVECs under the respective conditions. The population doublings (PDs) were estimated using the equation: PDL=3.32 (log (total viable cells at harvest/total viable cells at seeding). Also, HUVECs at passages PDL4 and PDL11 cultured in 0 μM (i.e., DMSO alone), 1 μM, or 2 μM PN6 were harvested for further analyses (e.g., western blot and SA-β-gal staining).
Cells were harvested with a 1.25× Laemmli buffer and lysed in RIPA lysis buffer containing 1% of Triton X-100 and a protease inhibitor cocktail, and total protein concentrations were measured with a protein assay kit. Proteins in the samples of the lysates with the same amounts of total protein were separated by sodium dodecyl sulfate polyacrylamide gel electrophoresis (SDS-PAGE) (10% polyacrylamide gels) and analyzed by immunoblotting. […] Protein quantification was performed by software.

Assay [2] has as its system aged C57BL/6J mice. The assay can be described thus: Metabolic breath analysis test. Type of assay: in vivo, mouse. The note with it: versus SD. Here is the method: The metabolic breath analysis test was carryout out using the OxyletPro System. The male C57BL/6J mice fed a standard rodent chow with or without 50 mg/kg PN6 for 22 weeks (at 72 weeks of age; mid-term) were placed in the metabolic cages of the OxyletPro System for a 24-hour habituation period before actual recordings and remained in the cages for the following 48 hours. The OxyletPro System was equipped with an air supply and switching unit that provided independent flow control to the cage and collected the products produced therein. The gas analyzer was connected in tandem to the OxyletPro System for O2 and CO2 concentration analyses, from which the oxygen consumption (VO2), the carbon dioxide production (VCO2), and the energy expenditure (EE) were automatically calculated. SD, n=12; PN6, n=7.

In another assay the test system is HUVECs. Kind of assay: Senescence-associated (SA)-β-gal staining. Type of assay: cell-based, human. The note with it: HUVECs at PDL11, versus control without PN6; FIG. 3C. As for the experimental part: as §1
HUVECs at 90% confluency were collected, washed, and fixed with 2% formaldehyde and 0.2% glutaraldehyde for 5 minutes. The cells were then subjected to staining by incubation with a staining solution (40 mmol/l citric acid, sodium phosphate, pH 6.0, 1 mg/ml 5-bromo-4-chloro-3-isolyl-β-D-galactoside (X-gal, Sigma), 5 mmol/l potassium ferrocyanide, 5 mmol/l potassium ferricyanide, 150 mmol/l NaCl, and 2 mmol/l MgCl2) at 37° C. for 18-24 hours. The results of SA-β-gal-positive cells were observed by microscopy, and were counted for over 300 cells in at least three independent fields.

Assay [3] relates to aged C57BL/6J mice. The assay can be described thus: Visible changes in appearance of aged mice. Type of assay: in vivo, mouse. The following applies: chow containing 50 mg/kg PN6. Here is the method:
All animal procedures were conducted under protocols (Protocol #CGU108-134) that complied with relevant regulations and approved by Research Guidelines for the Care and Use of Laboratory Animals, Chang Guan University. Male C57BL/6J male mice (at 34 weeks of age) obtained from National Laboratory Animal Center (NLAC) were maintained at 23±1° C. and at humidity of 45-70% with a 12 hour dark/light cycle (7:00 am/pm lights on/off). After reaching 50 weeks of age, the mice were randomly divided into two groups: Group I (SD), fed a standard rodent chow (n=27); and Group II (PN6), fed a standard rodent chow containing 50 mg/kg PN6 (n=10). Animals had ad libitum access to food and water throughout the study (the mice were sacrificed at 131 weeks of age), during which their body weight and food intake were measured weekly.

Take `CCC(CC[C@@H](C)C1CCC2C3CC(=O)[C@H]4C[C@@H](O)CC[C@]4(C)C3CC[C@@]21C)C(C)C` (stereo in doubt) [PN6, (24S)-3β-hydroxy-5α-stigmastan-6-one]: the “NAD^+ content of yeast” value in assay [1] is “significantly increased”. For the same compound, in the assay with p21, the p21 expression level result is on record as “decreased dose-dependently”. In addition, the “rate of O2 consumption” value with aged C57BL/6J mice [2] (FIG. 4L) is on record as “significantly higher”. Besides, in the assay with aged C57BL/6J mice [2] (FIG. 4M), the “rate of CO2 elimination” value is reported as “significantly higher”. In addition, the respiratory quotient result with aged C57BL/6J mice [2] (FIG. 4N) is “higher”. Besides, the energy expenditure entry with aged C57BL/6J mice [2] (FIG. 4O) is “higher”. Besides, the “number of SA-β-gal-positive senescent cells” value with HUVECs is “decrease in the number”. In the assay on aged C57BL/6J mice [3], this compound registered a Hair graying of 25%, a Kyphosis of 13% and a Muscle weakness of 13%.
